In US9018253B2, “Phenylcarbamate compound and muscle relaxant containing the same” (Bio-Pharm Solutions Co., Ltd., priority 2010, dated 2015):
Marks after values point to notes of the source that are not given here.

Assays:
Type in all cases: in vivo
male mice (ICR) [1] = assay: Residence time on a rotarod rotating at a fixed speed (Fixed 15 r.p.m. Rotarod, muscle relaxation); settings: intraperitoneal (10 ul/g, bw), at time of maximum effect, 50% vs vehicle only (100%), 15 rpm, max 10 min
Description: (§1) For testing, male mice (ICR) were purchased from ORIENT BIO INC. (Korea), divided into several groups with 6 mice in each group, and were adapted for 4-5 days. The mice having the weight ranging from 19 g to 26 g were employed for the test. The pharmacological effect of the test compounds on muscle relaxation was evaluated by Rotarod test, grip strength test, and muscular force (wire hang) test. All mice were adapted to the test environment at one hour before starting the tests. The pharmacological effects of all the test compounds were evaluated by administration through peritoneal cavity of the mice (10 ul/g, bw).
All the mice to be tested were preliminarily trained for 5 minutes on a rod rotating at the rate of 15 revolutions per a minute. The mice that could not remain on the rod without falling off therefrom for a minimum of 2 minutes were excluded from this testing. After the training, all the mice were allowed to rest for 45-60 minutes. Before the administration of the test compounds, the mice were subjected to a further training for one minute on the rod rotating under the same condition, where the mice falling off from the rod were excluded from this experimentation. […] In case a mouse stays on the rod until the test is finished, the time was recorded as 10 minutes. As test time for evaluation, a maximum of 10 minutes was applied. This experimentation was conducted according to the method described in the reference, ‘Yasuda et al. (2005) Antipyretic, analgesic and muscle relaxant activities of Pueraria isoflavonoids and their metabolites from Pueraria lobata Ohwi—a traditional Chinese drug. Biol. Pharm. Bull. 28: 1224-1228’.
(§2) The obtained results are shown as mean±sem. The difference between the groups was statistically analyzed by ANOVA, and then, further examined by Dunnett's test or Bonferroni test. If p is less than 0.05, it was determined that the difference between the groups had statistical significance.
(§3) The results of muscle relaxation activity of the phenyl carbamate compounds measured in above Experimental Examples 1 to 4 are shown in following Table 3.

male mice (ICR) [2] = assay: Endurance time on a rotarod rotating at accelerated speed (Acc. Rotarod, muscle relaxation); settings: Mus musculus, ip, 5 min, intraperitoneal (10 ul/g, bw), at time of maximum effect, 50% of muscle relaxation activity vs vehicle only (100%), rod accelerated 4 to 40 rpm, max 5 min, read-out: MR test ED50, I = Acc. Rotarod
Description: as §1
At 24 hours before testing, the mice to be tested were preliminarily trained for 5 minutes on a rod rotating at the rate of 6 revolutions per a minute. The pharmacological effect on muscle relaxation of the test compounds were evaluated by observing the mice on a rod for 5 minutes, where the rod was accelerated from 4 to 40 revolutions per a minute during the test time. The endurance time that each mouse endures on the acceleratedly rotated rod without falling off from the rod was recorded. As test time for evaluation, a maximum of 5 minutes was applied. […] This experimentation was conducted according to the method described in the reference, ‘Monville et al. (2006) Comparison of incremental and accelerating protocol of the rotarod test for the assessment of motor deficits in the 6-OHDA model. J. Neurosci. Meth. 158: 219-223’.
as §2, §3

male mice (ICR) [3] = assay: Grip strength test (forelimbs, muscle relaxation); settings: for ED50: Mus musculus, ip, intraperitoneal (10 ul/g, bw), at time of maximum effect, 50% vs vehicle only (100%), read-out: MR test ED50, III = Grip strength
Description: as §1
A grip strength test using the test animals' forelimbs was performed using an instrument equipped with triangle ring and designed so as to easily grip with the forelimbs of experimental animals, manufactured from Ugo Basile Inc. (Ugo Basile, Model 47106, Italy). The test was conducted before and after administration of the compounds to evaluate the effects thereof. […] The mouse was made to grip the rod with its forelimbs, and its tail was pulled, where the force at which the mouse detached from the rod was recorded. The instrument indicated the force in grams. All of the mice were given 3 opportunities for test, and the 3 highest values among the test opportunities were selected and the mean value was used as the test result. This experimentation was conducted according to the method described in the reference, ‘Nevins et al. (1993) Quantitative grip strength assessment as a means of evaluating muscle relaxation in mice. Psychopharmacol. 110: 92-96’.
as §2, §3

male mice (ICR) [4] = assay: Wire hang test (muscular force, muscle relaxation); settings: for ED50: Mus musculus, ip, intraperitoneal (10 ul/g, bw), at time of maximum effect, 50% vs vehicle only (100%), read-out: MR test ED50, IV = Wire hang; for IV = Wire hang, effect (%) compared to that of control treated with vehicle only: 100 mg/kg administered, intraperitoneal
Description: as §1
This experimentation was conducted using a metal wire of 30 cm in length, which was suspended between two pillars at a height of about 40 cm from the bottom covered with a soft pad. […] Each mouse was made to grip the wire using two forelimbs, and the elapse time before the mouse fell off from the wire to the pad on the bottom was recorded in seconds. Each mouse was given 5 opportunities for this test at an interval of 2 minutes period. The highest 3 records among the test opportunities were selected and the mean value was used as the test result. This experimentation was conducted according to the method described in the reference, ‘Jacqueline N. Crawley (1999) Behavioral phenotyping of transgenic and knockout mice: experimental design and evaluation of general health, sensory functions, motor abilities, and specific behavioral tests. Brain Res. 835: 18-26’.
as §2, §3

Compound | MR test ED50, II = Fixed 15 r.p.m. Rotarod (male mice (ICR) [1]) | also measured
CNC(=O)OC(C)C(O)c1ccccc1Cl (racemic) [Compound 29, 1-(2-chlorophenyl)-1-hydroxypropyl-2-N-methylcarbamate] | 41.0 mg/kg, bw | 
CC[C@H](OC(N)=O)[C@@H](O)c1ccccc1I [Compound 67, 1-(2-iodophenyl)-(S)-1-hydroxybutyl-(S)-2-carbamate] | 30.2 mg/kg, bw | 
C[C@@H](OC(N)=O)[C@H](O)c1ccccc1Cl [Compound 2, 1-(2-chlorophenyl)-(R)-1-hydroxypropyl-(R)-2-carbamate] | 76.5 mg/kg, bw | 
C[C@H](OC(N)=O)[C@H](O)c1ccccc1Cl [Compound 4, 1-(2-chlorophenyl)-(R)-1-hydroxypropyl-(S)-2-carbamate] | 65.0 mg/kg, bw | ED50 (male mice (ICR) [2]): 69.3 mg/kg; ED50 (male mice (ICR) [3]): 124 mg/kg; ED50 (male mice (ICR) [4]): 40 mg/kg
C[C@H](OC(N)=O)[C@@H](O)c1ccccc1Cl [Compound 1, 1-(2-chlorophenyl)-(S)-1-hydroxypropyl-(S)-2-carbamate] | 23.3 mg/kg, bw | 
CNC(=O)O[C@@H](C)[C@@H](O)c1ccccc1Cl [Compound 15, 1-(2-chlorophenyl)-(S)-1-hydroxypropyl-(S)-2-N-methylcarbamate] | 42.8 mg/kg, bw | 
CC(C)NC(=O)O[C@H](C)[C@H](O)c1ccccc1Cl [Compound 24, 1-(2-chlorophenyl)-(R)-1-hydroxypropyl-(R)-2-N-isopropylcarbamate] | 44.3 mg/kg, bw | 
C[C@@H](OC(N)=O)[C@@H](O)c1ccccc1Cl [Compound 5, 1-(2-chlorophenyl)-(S)-1-hydroxypropyl-(R)-2-carbamate] | 65.5 mg/kg, bw | ED50 (male mice (ICR) [2]): 66.9 mg/kg; ED50 (male mice (ICR) [3]): 95 mg/kg; ED50 (male mice (ICR) [4]): 52.5 mg/kg
CC(C)NC(=O)O[C@@H](C)[C@@H](O)c1ccccc1Cl [Compound 17, 1-(2-chlorophenyl)-(S)-1-hydroxypropyl-(S)-2-N-isopropylcarbamate] | 66.4 mg/kg, bw | 
C[C@@H](OC(=O)NC1CC1)[C@H](O)c1ccccc1Cl [Compound 25, 1-(2-chlorophenyl)-(R)-1-hydroxypropyl-(R)-2-N-cyclopropylcarbamate] | 18.3 mg/kg, bw | ED50 (male mice (ICR) [2]): 30 mg/kg; ED50 (male mice (ICR) [3]): 46.1 mg/kg; ED50 (male mice (ICR) [4]): 32.9 mg/kg
CC(OC(N)=O)C(O)c1ccccc1Cl (racemic) [Compound 3, 1-(2-chlorophenyl)-1-hydroxypropyl-2-carbamate] | 47.7 mg/kg, bw | 
C[C@@H](OC(N)=O)[C@H](O)c1ccccc1I [Compound 66, 1-(2-iodophenyl)-(R)-1-hydroxypropyl-(R)-2-carbamate] | 67.9 mg/kg, bw | 
CCCNC(=O)O[C@@H](C)[C@@H](O)c1ccccc1Cl [Compound 16, 1-(2-chlorophenyl)-(S)-1-hydroxypropyl-(S)-2-N-propylcarbamate] | 61.6 mg/kg, bw | 
C[C@@H](OC(N)=O)[C@H](O)c1ccccc1F [Compound 64, 1-(2-fluorophenyl)-(R)-1-hydroxypropyl-(R)-2-carbamate] |  | III = Grip strength, effect (%) compared to that of control treated with vehicle only (male mice (ICR) [3]; 120 mg/kg administered, intraperitoneal): 120 ^a (35.4%); IV = Wire hang, effect (%) compared to that of control treated with vehicle only (male mice (ICR) [4]): 100 ^a (30.8%)
C[C@H](OC(N)=O)[C@@H](O)c1ccccc1I [Compound 65, 1-(2-iodophenyl)-(S)-1-hydroxypropyl-(S)-2-carbamate] | 28.0 mg/kg, bw | 
C[C@H](OC(N)=O)[C@@H](O)c1ccccc1F [Compound 63, 1-(2-fluorophenyl)-(S)-1-hydroxypropyl-(S)-2-carbamate] |  | IV = Wire hang, effect (%) compared to that of control treated with vehicle only (male mice (ICR) [4]): 100 ^a (84.2%)
C[C@H](OC(=O)NC1CC1)[C@@H](O)c1ccccc1Cl [Compound 18, 1-(2-chlorophenyl)-(S)-1-hydroxypropyl-(S)-2-N-cyclopropylcarbamate] | 61.2 mg/kg, bw | 
CNC(=O)O[C@H](C)[C@H](O)c1ccccc1Cl [Compound 22, 1-(2-chlorophenyl)-(R)-1-hydroxypropyl-(R)-2-N-methylcarbamate] | 25.1 mg/kg, bw | 
